Results taken from patent US7074789B2, “Kinase inhibitors” (Amgen Inc., priority 1999, dated 2006).

Assays:
Type in all cases: biochemical
Lck = target: T1, Lck (Homo sapiens, UniProt P06239); test: Kinase inhibition assay (33P transfer), Lck; settings: for IC50: read-out: Lck-1
T1 construct: Kinases are expressed as either kinase domains or full length constructs; made in house
In short: (§1)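 Recombinant kinase-domain or full-length fusion proteins (GST or His tag) served as enzyme. Substrate poly(Glu,Tyr) 4:1 or poly(Arg,Ser) 3:1 was bound to the plate; transferred 33P was read by liquid scintillation following acid washing.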

Zap-70 = target: T2, Zap-70 (Homo sapiens, UniProt P43403); test: Kinase inhibition assay (33P transfer), Zap-70; settings: for IC50: read-out: Zap-1
T2 construct: Kinases are expressed as either kinase domains or full length constructs; made in house
T2 sequence (P43403 1-619): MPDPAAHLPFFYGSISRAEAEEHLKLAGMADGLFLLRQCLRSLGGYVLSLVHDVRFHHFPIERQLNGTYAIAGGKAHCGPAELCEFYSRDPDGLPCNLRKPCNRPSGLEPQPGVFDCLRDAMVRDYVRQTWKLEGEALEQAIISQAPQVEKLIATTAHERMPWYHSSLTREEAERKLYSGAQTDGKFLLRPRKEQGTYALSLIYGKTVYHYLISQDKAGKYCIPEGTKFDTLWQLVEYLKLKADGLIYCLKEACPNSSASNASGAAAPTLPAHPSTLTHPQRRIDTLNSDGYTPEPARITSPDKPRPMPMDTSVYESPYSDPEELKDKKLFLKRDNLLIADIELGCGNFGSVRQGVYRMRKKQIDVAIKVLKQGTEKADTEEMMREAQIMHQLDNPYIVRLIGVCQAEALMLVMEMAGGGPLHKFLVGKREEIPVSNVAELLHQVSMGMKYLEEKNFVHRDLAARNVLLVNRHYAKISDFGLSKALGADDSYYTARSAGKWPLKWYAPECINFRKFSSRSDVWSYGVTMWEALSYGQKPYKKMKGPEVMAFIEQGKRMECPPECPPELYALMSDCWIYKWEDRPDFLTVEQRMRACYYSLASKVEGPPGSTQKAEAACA
In short: as §1

Itk = target: T3, Itk (Homo sapiens, UniProt Q08881); test: Kinase inhibition assay (33P transfer), Itk; settings: for IC50: read-out: Itk-1
T3 construct: Kinases are expressed as either kinase domains or full length constructs; made in house
T3 sequence (Q08881 1-620): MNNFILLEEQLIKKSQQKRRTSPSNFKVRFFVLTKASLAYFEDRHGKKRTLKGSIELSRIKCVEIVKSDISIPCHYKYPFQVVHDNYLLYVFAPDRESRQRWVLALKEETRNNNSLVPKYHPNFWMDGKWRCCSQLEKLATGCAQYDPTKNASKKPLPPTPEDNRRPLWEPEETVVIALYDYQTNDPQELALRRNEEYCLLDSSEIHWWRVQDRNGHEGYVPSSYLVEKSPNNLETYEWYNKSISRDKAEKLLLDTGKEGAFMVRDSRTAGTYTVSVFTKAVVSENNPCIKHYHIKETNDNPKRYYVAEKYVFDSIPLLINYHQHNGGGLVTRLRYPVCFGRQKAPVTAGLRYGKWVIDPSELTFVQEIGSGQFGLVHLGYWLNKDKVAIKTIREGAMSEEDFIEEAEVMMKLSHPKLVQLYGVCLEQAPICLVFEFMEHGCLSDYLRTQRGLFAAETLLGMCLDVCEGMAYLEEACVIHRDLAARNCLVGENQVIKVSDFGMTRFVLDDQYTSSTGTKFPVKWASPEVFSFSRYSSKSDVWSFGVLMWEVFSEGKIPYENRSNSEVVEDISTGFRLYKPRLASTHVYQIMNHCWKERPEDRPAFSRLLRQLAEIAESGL
In short: (§2)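 Recombinant kinase domains or full-length GST- or His-tagged constructs, from E. coli or baculovirus/High Five cells, sometimes with regulatory polypeptides. Transfer of 33P from ATP to plate-bound poly(Glu,Tyr) 4:1 or poly(Arg,Ser) 3:1 counted by liquid scintillation after phosphoric acid wash; IC50 is the concentration halving incorporation.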

EGFR = target: T4, EGFR (Homo sapiens, UniProt P00533); test: Kinase inhibition assay (33P transfer), EGFR; settings: Table 2, kinase inhibition class; for IC50: read-out: EGFR-1
T4 construct: Kinases are expressed as either kinase domains or full length constructs; made in house
T4 sequence (P00533 25-1210, species assumed): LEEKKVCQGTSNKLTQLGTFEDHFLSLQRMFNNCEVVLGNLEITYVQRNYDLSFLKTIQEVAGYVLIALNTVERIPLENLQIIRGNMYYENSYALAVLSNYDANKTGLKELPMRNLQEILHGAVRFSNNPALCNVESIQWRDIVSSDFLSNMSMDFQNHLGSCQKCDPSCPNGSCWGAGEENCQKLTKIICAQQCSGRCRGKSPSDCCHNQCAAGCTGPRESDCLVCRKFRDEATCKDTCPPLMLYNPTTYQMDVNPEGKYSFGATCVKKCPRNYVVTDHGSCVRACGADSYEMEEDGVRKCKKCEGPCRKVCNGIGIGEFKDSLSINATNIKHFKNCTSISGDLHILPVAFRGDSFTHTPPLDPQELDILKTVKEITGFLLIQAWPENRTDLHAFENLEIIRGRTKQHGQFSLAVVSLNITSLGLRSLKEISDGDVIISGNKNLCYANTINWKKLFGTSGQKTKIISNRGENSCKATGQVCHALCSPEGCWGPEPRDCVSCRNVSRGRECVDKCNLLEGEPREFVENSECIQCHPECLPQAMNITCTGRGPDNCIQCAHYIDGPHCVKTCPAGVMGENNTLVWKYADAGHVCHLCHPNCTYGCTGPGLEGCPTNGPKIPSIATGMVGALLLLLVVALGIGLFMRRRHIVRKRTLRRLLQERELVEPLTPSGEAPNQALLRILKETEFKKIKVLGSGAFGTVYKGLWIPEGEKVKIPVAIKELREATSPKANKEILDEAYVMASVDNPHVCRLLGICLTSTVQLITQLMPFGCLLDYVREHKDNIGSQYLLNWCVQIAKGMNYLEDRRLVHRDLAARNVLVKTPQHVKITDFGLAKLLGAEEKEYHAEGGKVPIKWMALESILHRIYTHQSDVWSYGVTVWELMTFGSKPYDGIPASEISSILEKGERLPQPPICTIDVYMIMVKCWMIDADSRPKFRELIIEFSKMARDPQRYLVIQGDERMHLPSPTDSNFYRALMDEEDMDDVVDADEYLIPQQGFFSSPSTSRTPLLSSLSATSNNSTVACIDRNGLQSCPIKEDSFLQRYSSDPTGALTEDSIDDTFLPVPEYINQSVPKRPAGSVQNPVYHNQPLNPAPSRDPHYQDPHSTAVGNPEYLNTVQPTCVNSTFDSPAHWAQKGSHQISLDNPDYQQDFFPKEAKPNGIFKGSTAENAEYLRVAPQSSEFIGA
In short: as §2

ErbB2 = target: T5, ErbB2 (Homo sapiens, UniProt P04626); test: Kinase inhibition assay (33P transfer), ErbB2; settings: for IC50: read-out: ErbB2-2
T5 construct: Kinases are expressed as either kinase domains or full length constructs; made in house
T5 sequence (P04626 23-1255, species assumed): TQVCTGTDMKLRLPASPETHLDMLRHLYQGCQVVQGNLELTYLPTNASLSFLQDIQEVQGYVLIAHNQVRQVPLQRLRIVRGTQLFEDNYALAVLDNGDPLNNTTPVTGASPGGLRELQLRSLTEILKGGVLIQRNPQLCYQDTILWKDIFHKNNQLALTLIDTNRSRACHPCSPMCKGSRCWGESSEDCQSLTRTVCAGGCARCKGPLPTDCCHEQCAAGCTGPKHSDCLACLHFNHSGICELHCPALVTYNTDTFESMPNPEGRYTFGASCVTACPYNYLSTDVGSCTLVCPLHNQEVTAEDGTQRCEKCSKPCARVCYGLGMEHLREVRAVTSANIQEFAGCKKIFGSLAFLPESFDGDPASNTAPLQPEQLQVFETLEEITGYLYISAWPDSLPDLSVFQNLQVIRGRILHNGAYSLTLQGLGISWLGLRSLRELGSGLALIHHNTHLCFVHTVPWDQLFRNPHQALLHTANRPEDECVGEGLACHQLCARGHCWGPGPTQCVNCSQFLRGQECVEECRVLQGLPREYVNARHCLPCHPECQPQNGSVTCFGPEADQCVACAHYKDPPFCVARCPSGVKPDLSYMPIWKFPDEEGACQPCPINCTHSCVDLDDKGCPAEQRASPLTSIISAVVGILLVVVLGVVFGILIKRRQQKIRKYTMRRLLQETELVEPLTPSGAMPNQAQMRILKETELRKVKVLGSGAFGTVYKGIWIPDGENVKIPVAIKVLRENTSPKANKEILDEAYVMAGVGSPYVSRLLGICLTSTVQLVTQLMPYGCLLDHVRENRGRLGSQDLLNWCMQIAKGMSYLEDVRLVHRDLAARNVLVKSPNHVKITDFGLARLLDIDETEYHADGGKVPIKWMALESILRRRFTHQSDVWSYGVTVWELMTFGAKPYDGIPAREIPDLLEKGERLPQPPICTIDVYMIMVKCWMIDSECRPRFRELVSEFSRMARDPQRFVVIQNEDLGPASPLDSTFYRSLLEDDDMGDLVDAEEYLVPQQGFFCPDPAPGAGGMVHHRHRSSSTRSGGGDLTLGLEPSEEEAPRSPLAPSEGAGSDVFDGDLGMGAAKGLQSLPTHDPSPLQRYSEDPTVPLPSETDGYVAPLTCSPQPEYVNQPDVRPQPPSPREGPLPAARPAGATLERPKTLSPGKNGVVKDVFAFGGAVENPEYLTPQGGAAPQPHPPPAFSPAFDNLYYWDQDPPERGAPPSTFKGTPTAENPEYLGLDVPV
In short: as §2

Kdr = target: T6, Kdr (Homo sapiens, UniProt P35968); test: Kinase inhibition assay (33P transfer), Kdr; settings: for IC50: read-out: KDR-1
T6 construct: Kinases are expressed as either kinase domains or full length constructs; made in house
In short: as §1

Tek = target: T7, Tek (Homo sapiens, UniProt Q02763); test: Kinase inhibition assay (33P transfer), Tek; settings: for IC50: read-out: Tek-1
T7 construct: Kinases are expressed as either kinase domains or full length constructs; made in house
In short: as §2

c-Met = target: T8, c-Met (Homo sapiens, UniProt P08581); test: Kinase inhibition assay (33P transfer), c-Met; settings: Table 2, kinase inhibition class; for IC50: read-out: Met-1
T8 construct: Kinases are expressed as either kinase domains or full length constructs; made in house
In short: as §2

AKT = target: T9, AKT (Homo sapiens, UniProt Q9Y243); test: Kinase inhibition assay (33P transfer), AKT; settings: Table 2, kinase inhibition class; for IC50: read-out: AKT3-1
T9 construct: Kinases are expressed as either kinase domains or full length constructs; made in house
T9 sequence (Q9Y243 whole entry, the tested form may be a part): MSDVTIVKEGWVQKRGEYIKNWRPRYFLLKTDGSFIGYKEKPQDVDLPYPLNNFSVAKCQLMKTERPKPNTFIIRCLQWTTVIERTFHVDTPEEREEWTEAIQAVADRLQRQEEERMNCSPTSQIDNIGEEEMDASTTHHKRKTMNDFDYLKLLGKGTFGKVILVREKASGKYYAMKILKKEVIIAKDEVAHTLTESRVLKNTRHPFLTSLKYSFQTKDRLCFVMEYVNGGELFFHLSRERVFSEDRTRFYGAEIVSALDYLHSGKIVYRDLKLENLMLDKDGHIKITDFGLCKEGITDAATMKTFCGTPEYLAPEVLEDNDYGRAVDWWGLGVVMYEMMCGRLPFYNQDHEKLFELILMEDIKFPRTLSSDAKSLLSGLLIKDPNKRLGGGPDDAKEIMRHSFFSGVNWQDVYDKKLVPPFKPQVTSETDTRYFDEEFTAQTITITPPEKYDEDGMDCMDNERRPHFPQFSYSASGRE
In short: as §1

IGFR-1 = target: T10, IGFR-1 (Homo sapiens, UniProt P08069); test: Kinase inhibition assay, IGFR-1 (Table 2); settings: Table 2, kinase inhibition class
T10 construct: Kinases are expressed as either kinase domains or full length constructs; made in house
T10 sequence (P08069 31-1367): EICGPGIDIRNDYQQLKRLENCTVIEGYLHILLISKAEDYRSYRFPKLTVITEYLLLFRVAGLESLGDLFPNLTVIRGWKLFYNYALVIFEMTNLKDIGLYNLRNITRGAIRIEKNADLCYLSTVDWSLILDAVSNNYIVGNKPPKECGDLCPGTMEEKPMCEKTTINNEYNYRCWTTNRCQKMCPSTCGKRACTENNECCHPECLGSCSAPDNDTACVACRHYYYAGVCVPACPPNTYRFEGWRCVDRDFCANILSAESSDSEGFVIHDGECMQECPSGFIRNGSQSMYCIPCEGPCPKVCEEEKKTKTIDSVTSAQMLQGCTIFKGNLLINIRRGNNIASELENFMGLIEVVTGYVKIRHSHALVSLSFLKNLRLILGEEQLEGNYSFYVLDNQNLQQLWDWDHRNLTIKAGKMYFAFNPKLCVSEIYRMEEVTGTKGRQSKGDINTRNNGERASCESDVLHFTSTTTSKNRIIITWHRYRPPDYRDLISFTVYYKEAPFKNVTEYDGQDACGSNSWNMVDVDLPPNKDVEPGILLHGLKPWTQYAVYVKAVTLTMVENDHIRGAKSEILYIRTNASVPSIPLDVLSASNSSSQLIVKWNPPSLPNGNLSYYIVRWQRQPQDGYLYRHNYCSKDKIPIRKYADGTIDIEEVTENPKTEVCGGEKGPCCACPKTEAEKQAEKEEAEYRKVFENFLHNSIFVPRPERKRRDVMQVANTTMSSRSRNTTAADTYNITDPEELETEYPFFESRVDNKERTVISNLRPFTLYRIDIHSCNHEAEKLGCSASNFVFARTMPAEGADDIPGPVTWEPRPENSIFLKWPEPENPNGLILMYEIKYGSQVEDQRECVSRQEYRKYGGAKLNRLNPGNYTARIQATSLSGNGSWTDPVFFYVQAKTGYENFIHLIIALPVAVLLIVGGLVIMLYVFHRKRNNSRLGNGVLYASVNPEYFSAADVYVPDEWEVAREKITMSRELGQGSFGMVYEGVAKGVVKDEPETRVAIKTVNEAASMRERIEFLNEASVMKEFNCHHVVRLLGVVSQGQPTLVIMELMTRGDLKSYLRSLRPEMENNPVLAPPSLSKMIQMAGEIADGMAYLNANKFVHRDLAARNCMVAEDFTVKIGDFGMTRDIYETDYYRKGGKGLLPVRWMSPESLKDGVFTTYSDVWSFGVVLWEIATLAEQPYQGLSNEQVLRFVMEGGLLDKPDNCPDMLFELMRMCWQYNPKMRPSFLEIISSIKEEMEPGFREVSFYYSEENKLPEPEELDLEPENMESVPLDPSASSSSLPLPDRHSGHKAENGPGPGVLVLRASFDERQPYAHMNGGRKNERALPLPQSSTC

PDGFRB = target: T11, PDGFRB (Homo sapiens, UniProt P09619); test: Kinase inhibition assay (33P transfer), PDGFRB; settings: for IC50: read-out: PDGFRB-1
T11 construct: Kinases are expressed as either kinase domains or full length constructs; made in house

T1 sequence (P06239 whole entry, species assumed, the tested form may be a part): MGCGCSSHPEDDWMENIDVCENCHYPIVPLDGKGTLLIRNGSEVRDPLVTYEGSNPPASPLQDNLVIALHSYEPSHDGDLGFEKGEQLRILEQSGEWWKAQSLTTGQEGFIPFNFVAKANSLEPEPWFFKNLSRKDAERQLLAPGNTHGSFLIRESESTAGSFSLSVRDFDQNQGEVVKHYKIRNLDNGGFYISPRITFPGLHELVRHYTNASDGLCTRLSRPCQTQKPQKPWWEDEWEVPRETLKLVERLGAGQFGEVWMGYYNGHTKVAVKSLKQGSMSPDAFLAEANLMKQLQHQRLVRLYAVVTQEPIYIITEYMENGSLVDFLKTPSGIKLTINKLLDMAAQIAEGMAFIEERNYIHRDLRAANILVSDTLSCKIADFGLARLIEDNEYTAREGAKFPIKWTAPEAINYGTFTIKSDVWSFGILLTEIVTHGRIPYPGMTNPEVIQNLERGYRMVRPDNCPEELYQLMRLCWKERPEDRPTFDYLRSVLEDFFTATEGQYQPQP

Row | Structure (SMILES) | IC50 (Lck) [µM] | IC50 (Zap-70) [µM] | IC50 (Itk) [µM] | IC50 (EGFR) [µM] | IC50 (ErbB2) [µM] | IC50 (Kdr) [µM] | IC50 (Tek) [µM] | IC50 (c-Met) [µM] | IC50 (AKT) [µM] | IC50 (IGFR-1) [µM] | IC50 (PDGFRB) [µM] | other results
1 | Nc1nc2ccccc2n1-c1ncnc(Nc2cccc(Cl)c2)n1 [Compound 474] | 1.18 to 7.11 | 7.11 to 10.4 | 1.18 to 7.11 | 1.18 to 7.11 | 1.18 to 7.11 | 1.18 to 7.11 | 1.18 to 7.11 | 1.18 to 7.11 | 1.18 to 7.11 | 1.18 to 7.11 | 1.18 to 7.11 | –
2 | COc1cc(Nc2ncnc(-n3nc(-c4ccccc4)cc3N)n2)cc(OC)c1OC [Compound 520] | 0.954 to 5.72 | > 10.7 | 0.954 to 5.72 | > 10.7 | > 10.7 | > 10.7 | > 10.7 | > 10.7 | > 10.7 | 0.954 to 5.72 | > 10.7 | –
3 | COc1cc(Nc2ncnc(-n3ncc(-c4ccccc4)c3N)n2)cc(OC)c1OC [Compound 522] | 0.954 to 5.72 | > 10.7 | 0.954 to 5.72 | 5.72 to 8.34 | 8.34 to 10.7 | 5.72 to 8.34 | 8.34 to 10.7 | 5.72 to 8.34 | > 10.7 | 0.954 to 5.72 | 5.72 to 8.34 | –
4 | COC(=O)c1ccc(-c2cc(Nc3ncnc(Nc4cc(OC)c(OC)c(OC)c4)n3)[nH]n2)cc1 [Compound 523] | < 0.838 | > 9.42 | 7.33 to 9.42 | 0.838 to 5.03 | 7.33 to 9.42 | > 9.42 | > 9.42 | < 0.838 | > 9.42 | < 0.838 | > 9.42 | –
5 | COc1cc(Nc2ncnc(Nc3cccc(C(F)(F)F)c3)n2)cc(OC)c1OC [Compound 614] | 0.949 to 5.7 | > 10.7 | > 10.7 | < 0.949 | 0.949 to 5.7 | 8.31 to 10.7 | 8.31 to 10.7 | > 10.7 | > 10.7 | < 0.949 | 0.949 to 5.7 | –
6 | CCN(CC)C(=O)C1CCCN(c2ncnc(Nc3cc(OC)c(OC)c(OC)c3)n2)C1 (centres unmarked) [Compound 615] | 7.87 to 10.1 | > 10.1 | 7.87 to 10.1 | > 10.1 | > 10.1 | > 10.1 | > 10.1 | > 10.1 | > 10.1 | > 10.1 | > 10.1 | –
7 | COc1cccc(Nc2ncnc(-n3c(N)nc4ccccc43)n2)c1 [Compound 654] | 1.2 to 7.2 | > 13.5 | 1.2 to 7.2 | 7.2 to 10.5 | 1.2 to 7.2 | < 1.2 | 1.2 to 7.2 | 7.2 to 10.5 | > 13.5 | < 1.2 | 1.2 to 7.2 | –
8 | CCc1ccc(Nc2ncnc(-n3c(N)nc4ccccc43)n2)cc1 [Compound 657] | 7.24 to 10.6 | 1.21 to 7.24 | 7.24 to 10.6 | 1.21 to 7.24 | 1.21 to 7.24 | 1.21 to 7.24 | 1.21 to 7.24 | 7.24 to 10.6 | 7.24 to 10.6 | 1.21 to 7.24 | 7.24 to 10.6 | –
9 | Nc1nc2ccccc2n1-c1ncnc(Nc2cccnc2)n1 [Compound 658] | > 14.8 | > 14.8 | 1.31 to 7.89 | 7.89 to 11.5 | > 14.8 | 1.31 to 7.89 | > 14.8 | > 14.8 | > 14.8 | < 1.31 | > 14.8 | –
10 | COc1cc(Nc2ncnc(-n3c(C)nc4ccccc43)n2)cc(OC)c1OC [Compound 691] | 1.02 to 6.12 | > 11.5 | 6.12 to 8.92 | 6.12 to 8.92 | > 11.5 | < 1.02 | > 11.5 | 1.02 to 6.12 | > 11.5 | < 1.02 | < 1.02 | –
11 | COc1cc(Nc2ncnc(Nc3ccc(NS(=O)(=O)c4ccc([N+](=O)[O-])cc4)cc3)n2)cc(OC)c1OC [Compound 692] | < 0.723 | 0.723 to 4.34 | 0.723 to 4.34 | 0.723 to 4.34 | < 0.723 | < 0.723 | 0.723 to 4.34 | 4.34 to 6.32 | > 8.13 | 0.723 to 4.34 | < 0.723 | –
12 | COc1cc(Nc2ncnc(Nc3cccc(C(C)=O)c3)n2)cc(OC)c1OC [Compound 697] | < 1.01 | > 11.4 | > 11.4 | 1.01 to 6.07 | 1.01 to 6.07 | 1.01 to 6.07 | 8.85 to 11.4 | > 11.4 | > 11.4 | 1.01 to 6.07 | < 1.01 | –
13 | COc1cc(Nc2ncnc(Nc3ccc(O)c4ncccc34)n2)cc(OC)c1OC [Compound 699] | – | – | – | – | – | – | – | – | – | – | – | Lck-1 (Lck): A (A<0.4 ug/mL); Zap-1 (Zap-70): E (E>4.5 ug/mL); Itk-1 (Itk): B (B>0.4 and <2.4 ug/mL); EGFR-1 (EGFR): B (B>0.4 and <2.4 ug/mL); ErbB2-2 (ErbB2): A (A<0.4 ug/mL); KDR-1 (Kdr): B (B>0.4 and <2.4 ug/mL); Tek-1 (Tek): D (D>3.5 and <4.5 ug/mL); Met-1 (c-Met): E (E>4.5 ug/mL); AKT3-1 (AKT): E (E>4.5 ug/mL); IGFR-1 (IGFR-1): B (B>0.4 and <2.4 ug/mL); PDGFRB-1 (PDGFRB): A (A<0.4 ug/mL)
